For orientation: EC50 means the concentration at which the effect is half-maximal.

The record followed here is patent US20260209234A1, “SUBSTITUTED DIHYDROPYRROLO[3,4-D]PYRIMIDINE COMPOUNDS AND THEIR USE IN TREATING MEDICAL CONDITIONS” (Karuna Therapeutics, Inc., priority 2022, published 2026).

For assay [1], the target named is T1, human M4 receptor (Homo sapiens, UniProt P08173).
T1 construct: expressed in transfected cells
T1 sequence (P08173 1-479): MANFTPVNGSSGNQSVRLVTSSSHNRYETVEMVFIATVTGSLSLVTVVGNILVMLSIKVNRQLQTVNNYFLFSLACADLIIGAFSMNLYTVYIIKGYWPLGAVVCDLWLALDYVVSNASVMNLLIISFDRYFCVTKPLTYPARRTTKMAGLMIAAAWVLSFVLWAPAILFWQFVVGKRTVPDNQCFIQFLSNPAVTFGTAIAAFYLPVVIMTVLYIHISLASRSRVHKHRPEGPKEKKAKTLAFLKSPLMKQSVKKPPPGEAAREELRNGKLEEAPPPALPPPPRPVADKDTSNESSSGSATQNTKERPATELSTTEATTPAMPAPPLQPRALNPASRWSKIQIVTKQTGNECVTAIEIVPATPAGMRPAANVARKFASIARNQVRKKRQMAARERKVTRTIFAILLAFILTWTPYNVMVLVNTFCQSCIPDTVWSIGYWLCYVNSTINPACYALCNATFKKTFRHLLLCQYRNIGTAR
In words: M4 GTPγS PAM assay. Type of assay: biochemical. The following applies: membranes of CHO-K1 cells stably expressing human M4; EC20 acetylcholine 40 nM; 35S-GTP. As for the experimental part: The M4 GTPγS PAM method was used. Membranes were prepared for GTPgS binding assays from CHO-K1 cells stably expressing human M4 receptor. Briefly, cells were grown in 5-layer cell culture flasks. Cells were washed with 50 mL of PBS and then dissociated with 0.05% trypsin. Dissociated cells were then collected by centrifugation at 650×g for 8 minutes at 4° C. Pellets were washed again in PBS by centrifugation and resuspended in 30 mL of 20 mM HEPES, 10 mM EDTA, pH 7.4. After sitting on ice for 30 min, membranes were collected by centrifugation at 50000×g for 15′ at 4° C., resuspended in 30 mL of 20 mM HEPES, 0.1 mM EDTA, pH 7.4 and collected again by centrifugation. Pellets were then washed twice by centrifugation in 30 mL of 20 mM HEPES, pH 7.4, and stored at −80° C. until the day of the assay. On the day of the assay, pellets were thawed on ice and resuspended in 1 mL of 20 mM HEPES, pH 7.4, 10 mM MgCl2, 100 mM NaCl using dounce homogenization. Membrane protein concentration is determined by BCA protein assay (Promega, Madison, WI) according to Promega guidelines.
On the day of the assay, serial dilutions of test PAM compounds were brought up in assay buffer (20 mM HEPES, 10 mM MgCl2, 100 mM NaCl) at 4× final assay concentration. […] of membrane homogenates (containing […] of membrane protein) were prepared in assay buffer supplemented with GDP at 4× final assay concentration (final assay concentration of GDP is 5 μM for M2 and 0.1 μM for M4) and dispensed into 96 well polypropylene, U-bottom Greiner plates. […] of vehicle or test PAM compound at 4× of final assay concentration diluted in the assay buffer were added to membrane and plates are incubated for 10-15 minutes at room temperature with gentle shaking. Then, […] of EC20 acetylcholine in assay buffer at 4× final assay concentration was added to assay plates (EC20 final assay concentrations was 40 nM for human M4).
Plates were then incubated, with shaking, for an additional 10-15 minutes. […] of 0.4 nM 35S-GTP (Perkin Elmer, Waltham, MA) in assay buffer was added to assay mixtures. The binding reaction is left on the shaker for 1 hour at room temperature. Membranes in assay reactions were then transferred to GF/C filter plates (Unifilter, Perkin Elmer) and washed three times using a FilterMate Harvester (Perkin Elmer) with cold assay buffer containing no GDP. Filter plates were then dried at 40° C. overnight followed by the addition of […] of Beta Plate Scintillation liquid. Plates are top and bottom sealed before being read on TopCount scintillation counter (Perkin Elmer, Waltham, MA).

Assay [2] concerns the target T2, hM4 receptors (Homo sapiens, UniProt P08173).
T2 construct: expressed in transfected cells; host or cells: CHO cells
T2 sequence (P08173 1-479): T1 sequence (P08173 1-479)
In words: Human M4 PAM pERK assay. The assay is classed as cell-based. As to conditions: CHO cells expressing hM4; EC20 of acetylcholine (10 nM final); TR-FRET. As for the experimental part:
(§1) Chinese hamster ovary (CHO) cells expressing either hM4 or rM4 receptors were frozen in assay ready vials (5×10^6 cells/vial) after bulking-up in culture. The day before an assay, vial(s) were thawed and cells seeded in 384 well white proxiplates at 1000/well for hM4 cells and at 2000/well for rM4 cells, in 10 μL of growth media (Hams/F12 with glutamax and 10% FCS) and incubated overnight at 37° C./5% CO2.
(§2) On the following morning, the growth media was removed by ‘flicking out’ over a bin, patting the inverted plate onto tissue, and then replacing with 10 μL of wash media (Hams/F12 with glutamax and 8 mM HEPES, NB: serum free). Then, the wash media was removed in the same way and replaced with 8 μL/well of the serum free media. Plates were then re-incubated for a further 4 hours at 37° C./5% CO2.
(§3) Compounds for testing were solubilized to 10 mM in DMSO and compound addition plates, consisting of ten-point concentration response curves (CRC) in duplicate points (10 μM top concentration, 1/2 log dilution series), were prepared by acoustic dispensing and the compound management group.
(§4) After the 4-hour incubation in serum free media, a 4 μL aliquot of the 3× compound solution containing an EC20 of acetylcholine (10 nM final concentration) was added to the cell plate using a 384 well plate to plate transfer. Then, the plate lid was replaced, and the cells incubated for 5 mins at 37° C./5% CO2. Following this final incubation, all cellular processes were stopped by the addition of 4 μL/well of lysis and blocking buffer and plates were incubated for 30 minutes at RT on an orbital shaker (gentle setting). Then, a final addition of 4 μL/well of antibody detection mix, containing both the Europium-Cryptate (donor) and d2 (acceptor) tagged detection components, was added followed by a further 2-hour incubation at RT, and then the plate was read using a TR-FRET (time resolved fluorescence resonance energy transfer) based protocol.
(TR-FRET usually uses a lanthanide donor and a delayed reading to cut background.)

Assay [3] has as its target T3, rM4 receptors (Rattus norvegicus, UniProt P08485).
T3 construct: expressed in transfected cells; host or cells: CHO cells
T3 sequence (P08485 1-478): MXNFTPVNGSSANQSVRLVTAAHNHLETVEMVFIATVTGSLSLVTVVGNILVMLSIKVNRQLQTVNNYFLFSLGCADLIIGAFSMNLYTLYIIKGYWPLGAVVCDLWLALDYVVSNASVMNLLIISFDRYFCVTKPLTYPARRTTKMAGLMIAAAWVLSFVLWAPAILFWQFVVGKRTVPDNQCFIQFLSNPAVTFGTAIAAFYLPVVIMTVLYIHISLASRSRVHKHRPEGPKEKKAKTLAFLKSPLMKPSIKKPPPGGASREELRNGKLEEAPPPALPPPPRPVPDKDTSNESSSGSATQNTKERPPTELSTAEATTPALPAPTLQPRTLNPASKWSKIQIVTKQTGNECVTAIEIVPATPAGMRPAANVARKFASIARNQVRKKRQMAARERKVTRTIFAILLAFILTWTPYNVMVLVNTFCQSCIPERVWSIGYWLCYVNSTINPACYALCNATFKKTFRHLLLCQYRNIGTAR
The assay is described as follows: Rat M4 PAM pERK assay. The following applies: CHO cells expressing rM4; EC20 of acetylcholine (10 nM final); TR-FRET. The assay is classed as cell-based. As for the experimental part:
as §1, §2, §3, §4

`COc1nc2c(c(OC(F)F)n1)CN(C(=O)CC1CN(c3cccnc3)C1)C2` [Compound I-76, 1-(4-(Difluoromethoxy)-2-methoxy-5,7-dihydro-6H-pyrrolo[3,4-d]pyrimidin-6-yl)-2-(1-(pyridin-3-yl)azetidin-3-yl)ethan-1-one]: the EC50 in assay [1], in assay [2] and in assay [3] was no less than 2000 nM each time.
Regarding `COc1nc(C#N)nc2c1C(C)N(C(=O)CC1CN(c3ccnc(C(F)(F)F)c3)C1C)C2` (single isomer, unassigned) [Compound I-39, 4-Methoxy-5-methyl-6-(2-(2-methyl-1-(2-(trifluoromethyl)pyridin-4-yl)azetidin-3-yl)acetyl)-6,7-dihydro-5H-pyrrolo[3,4-d]pyrimidine-2-carbonitrile], the EC50 in assay [1] is no less than 2000 nM; in assay [2], 500 to 2000 nM; in assay [3] it was 500 to 2000 nM.
`COc1nc(C#N)nc2c1C(C)N(C(=O)CC1CN(c3ccncc3F)C1)C2` (single isomer, unassigned) [Compound I-29, 6-(2-(1-(3-Fluoropyridin-4-yl)azetidin-3-yl)acetyl)-4-methoxy-5-methyl-6,7-dihydro-5H-pyrrolo[3,4-d]pyrimidine-2-carbonitrile]: the EC50 in assay [1] lay within 100 to 500 nM; in assay [2], 100 to 500 nM; in assay [3], 500 to 2000 nM.
Consider `COc1nc(Cl)nc2c1CN(C(=O)CC1CN(c3ccnc(C(F)(F)F)c3)C1)C2` [Compound I-1, 1-(2-Chloro-4-methoxy-5,7-dihydro-6H-pyrrolo[3,4-d]pyrimidin-6-yl)-2-(1-(2-(trifluoromethyl)pyridin-4-yl)azetidin-3-yl)ethan-1-one], for which the results for the EC50 in assay [1], in assay [2] and in assay [3] were no more than 100 nM, 100 to 500 nM and 500 to 2000 nM, respectively.
On the same counts, the results for `COc1nc(C#N)nc2c1C(C)N(C(=O)CC1CN(c3ccnc(OC4CC4)c3)C1)C2` (single isomer, unassigned) [Compound I-14, 6-(2-(1-(2-Cyclopropoxypyridin-4-yl)azetidin-3-yl)acetyl)-4-methoxy-5-methyl-6,7-dihydro-5H-pyrrolo[3,4-d]pyrimidine-2-carbonitrile] are no more than 100 nM, no more than 100 nM and 500 to 2000 nM.
On the same counts, the results for `CCOc1nc(C)nc2c1CN(C(=O)CC1CN(c3ccnc(C(F)(F)F)c3)C1)C2` [Compound I-46, 1-(4-Ethoxy-2-methyl-5,7-dihydro-6H-pyrrolo[3,4-d]pyrimidin-6-yl)-2-(1-(2-(trifluoromethyl)pyridin-4-yl)azetidin-3-yl)ethan-1-one] are 500 to 2000 nM, 500 to 2000 nM and no less than 2000 nM.
`COc1nc(C)nc2c1C(C)N(C(=O)CC1CN(c3cccc(C#N)c3)C1)C2` (single isomer, unassigned) [Compound I-54, 3-(3-(2-(4-Methoxy-2,5-dimethyl-5,7-dihydro-6H-pyrrolo[3,4-d]pyrimidin-6-yl)-2-oxoethyl)azetidin-1-yl)benzonitrile]: the EC50 in assay [1], in assay [2] and in assay [3] was no less than 2000 nM each time.
In the case of `COc1nc(C#N)nc2c1C(C)N(C(=O)CC1CN(c3ccnc(C(F)(F)F)c3)C1)C2` (single isomer, unassigned) [Compound I-5, 4-Methoxy-5-methyl-6-(2-(1-(2-(trifluoromethyl)pyridin-4-yl)azetidin-3-yl)acetyl)-6,7-dihydro-5H-pyrrolo[3,4-d]pyrimidine-2-carbonitrile], the EC50 in assay [1], in assay [2] and in assay [3] was no less than 2000 nM each time.
On to `COc1nc(C)nc2c1CN(C(=O)CC1CN(c3ccc(C(F)(F)F)nc3)C1)C2` [Compound I-44, 1-(4-Methoxy-2-methyl-5,7-dihydro-6H-pyrrolo[3,4-d]pyrimidin-6-yl)-2-(1-(6-(trifluoromethyl)pyridin-3-yl)azetidin-3-yl)ethan-1-one], for which the figures for the EC50 in assay [1], in assay [2] and in assay [3] were no less than 2000 nM, no less than 2000 nM and 500 to 2000 nM, respectively.
As for `COc1nc(C)nc2c1C(C)N(C(=O)CC1CN(c3cccc(C#N)c3)C1)C2` (single isomer, unassigned) [Compound I-55, 3-(3-(2-(4-Methoxy-2,5-dimethyl-5,7-dihydro-6H-pyrrolo[3,4-d]pyrimidin-6-yl)-2-oxoethyl)azetidin-1-yl)benzonitrile], the results for the EC50 in assay [1], in assay [2] and in assay [3] were no less than 2000 nM, 500 to 2000 nM and 500 to 2000 nM, respectively.
For the molecule `COc1nc(C)nc2c1CN(C(=O)CC1CN(c3ncns3)C1)C2` [Compound I-45, 2-(1-(1,2,4-Thiadiazol-5-yl)azetidin-3-yl)-1-(4-methoxy-2-methyl-5,7-dihydro-6H-pyrrolo[3,4-d]pyrimidin-6-yl)ethan-1-one], the concentration for a half-maximal effect (EC50) in assay [1] was no less than 2000 nM; in assay [2] it was 100 to 500 nM; in assay [3], 500 to 2000 nM.
Taken in the same sequence, the figures for `COc1nc2c(c(OC)n1)C(C)N(C(=O)CC1CN(c3ccnc(C(F)(F)F)c3)C1)C2` (single isomer, unassigned) [Compound I-69, 1-(2,4-Dimethoxy-5-methyl-5,7-dihydro-6H-pyrrolo[3,4-d]pyrimidin-6-yl)-2-(1-(2-(trifluoromethyl)pyridin-4-yl)azetidin-3-yl)ethan-1-one] were no less than 2000 nM, no less than 2000 nM and no less than 2000 nM.
